Test results: patent publication US20260184712A1, “Heterocyclic Compounds as ENT Inhibitors and Compounds for Use in the Treatment of Cancers” (iTeos Belgium SA, priority 2022, published 2026)

How the values were obtained:
Type in all cases: cell-based
Human ENT2 = biological target: T1, Human ENT2 (Homo sapiens, UniProt Q14542); assay: Adenosine uptake assay, ENT2-mediated transport in MDCKII cells; conditions: MDCKIIENT2-LV cells, probe adenosine 0.5 μM, pre-incubation 30 min, incubation 10 min
T1 construct: expressed in transfected cells
T1 sequence (Q14542 1-456): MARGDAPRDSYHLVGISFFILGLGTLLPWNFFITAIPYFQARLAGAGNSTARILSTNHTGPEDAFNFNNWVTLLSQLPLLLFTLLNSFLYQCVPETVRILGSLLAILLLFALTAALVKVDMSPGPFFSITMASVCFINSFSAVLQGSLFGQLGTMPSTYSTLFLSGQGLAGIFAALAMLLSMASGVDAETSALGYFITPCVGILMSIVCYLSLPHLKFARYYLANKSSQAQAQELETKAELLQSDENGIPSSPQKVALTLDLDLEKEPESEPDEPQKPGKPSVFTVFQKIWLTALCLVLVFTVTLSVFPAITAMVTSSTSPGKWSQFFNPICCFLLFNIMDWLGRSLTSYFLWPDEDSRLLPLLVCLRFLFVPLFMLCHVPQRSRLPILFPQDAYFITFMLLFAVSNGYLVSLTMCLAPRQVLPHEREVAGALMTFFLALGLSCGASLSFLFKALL
Procedure: The goal of this study was to determine the potency and selectivity of ENT1 inhibitors by measuring ENT1 and ENT2-mediated transport using an in vitro cellular uptake assay.
Human ENT1 and ENT2 transporters were stably expressed in Madin-Darby Canine Kidney II (MDCKII) cells via transduction. Cell lines overexpressing the relevant ENT1 or ENT2 molecules were preincubated with a dose range of the relevant compound for 30 minutes before introduction of the specific substrate at the concentration indicated in the Table assay parameters below. The transporter assay was conducted for the time specified in the Table assay parameters before the specific uptake of the substrate into the cells was quantified. Specific uptake was determined by comparing the uptake from the cells treated with the relevant compounds and the uptake by cells not overexpressing the transporter in question.
Specific uptake for each concentration of the test sample was normalized to the DMSO control value to generate a relative accumulation value (or relative transporter activity). Data were plotted against the log molar concentration of the test reagent used. IC50 values were generated with Prism version 9.4.1 and the following function: log(inhibitor) vs. response—Variable slope (four parameters).

[1] = test system: stimulated primary human T cells; assay: T cell proliferation assay, Condition A (X-VIVO15); conditions: Condition A: X-VIVO15 medium, anti-CD3/anti-CD28 beads, ATP, 4 days, CFSE-lo T cells
In short: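 CFSE-labelled human CD3+ T cells (2×10^4/well) in serum-free X-VIVO15 were activated with anti-CD3/CD28 beads (1 bead:2 cells), pre-incubated 30 min with inhibitor, then cultured with 100 uM ATP for 4 days at 37 °C. Flow cytometry measured %CFSE^lo cells, and IC50/IC90 came from log-concentration curve fits.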

[2] = test system: stimulated primary human T cells; assay: T cell proliferation assay, Condition B (X-VIVO15, 2% HSA and 0.1% AAG); conditions: Condition B: X-VIVO15 medium containing HSA and α1-Acid Glycoprotein, anti-CD3/anti-CD28 beads, ATP, 4 days, CFSE-lo T cells
In short: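 CFSE-labelled CD3+ T cells from healthy donors (2×10^4/well) in X-VIVO15 with 2% HSA and 0.1% AAG were stimulated with anti-CD3/CD28 beads. After 30 min pre-incubation with inhibitor, ATP was added and cells were cultured 4 days at 37° C. Flow cytometry gave % CFSE^lo cells, with IC50/IC90 and pICF from curve fits.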

| SMILES | IC50 (Human ENT2) | IC50 ([1]; Homo sapiens, T-cell, 96 h) | IC50 ([2]; Homo sapiens, T-cell, 96 h) | IC50 [1] | IC50 [2] |
| --- | --- | --- | --- | --- | --- |
| COc1cc(C(=O)OCCCN2CCCN(CCCOC(=O)c3cc(OC)c(OC)c(OC)c3)CC2)cc(OC)c1OC [Dilazep, dilazep, reference compound] | > 1000 nM | 1 to 20 nM | 20 to 500 nM | – | – |
| O=[N+]([O-])c1ccc(CSc2ncnc3c2ncn3[C@@H]2O[C@H](CO)[C@@H](O)[C@H]2O)cc1 [NBMPR, reference compound] | > 1000 nM | – | – | 1 to 20 nM | 20 to 500 nM |
